Experiments:
Assay in all cases: Reverse Phase Protein Analysis (RPPA)
HT29 = assay type: cell-based; settings: % change from DMSO (matched cell line)
Description: (§1) Control wells were treated with DMSO at 0.1% (v/v) for 6 hours prior to cell lysate generation. Samples were then analyzed using reverse-phase protein microarray technology (Theranostics Health).
(§2) Cell lines with common alterations in BRAF and RAS were assayed: BRAF^V600E mutant lines A375, Colo205, and HT29; KRAS^G12C-mutant cell line MIAPACa-2; KRAS^G13D-mutant cell line HCT116; and AN3Ca with atypical HRAS^F82L mutation. Changes in protein levels are shown as a percentage change from dimethyl sulfoxide (DMSO)-treated parental control (FIG. 32A and Table 23).

AN3Ca = assay type: cell-based; settings: % change from DMSO (matched cell line)
Description: as §1, §2

MIAPaCa-2 = assay type: cell-based; settings: MIAPaca2; % change from DMSO (matched cell line)
Colo205 = assay type: cell-based, human; settings: % change from DMSO (matched cell line)

Compound: CC(C)Nc1cc(-c2c[nH]c(C(=O)N[C@H](CO)c3cccc(Cl)c3)c2)c(Cl)cn1 [BVD-523]
- Avg (4ebp1 T70) (HT29): −41.47%
- Avg (Akt S473) (HT29): −3.06%
- Avg (Akt) (HT29): −13.41%
- Avg (Bad S136) (HT29): 10.73%
- Avg (Bad S155) (HT29): −25.9%
- Avg (Bak) (HT29): −1.42%
- Avg (Bax) (HT29): 8.39%
- Avg (Bcl 2) (HT29): 10.68%
- Avg (Bcl2 S70) (HT29): 2.83%
- Avg (Bcl 2 T56) (HT29): −8.18%
- Avg (Bim) (HT29): 2.81%
- Avg (CREB S133) (HT29): −3.46%
- Avg (Caspase 3 CL D175) (HT29): −7.03%
- Avg (Caspase 7 Cl D198) (HT29): −6.93%
- Avg (Chk1) (HT29): 7.4%
- Avg (Chk1 S345) (HT29): −13.48%
- Avg (Cyclin D1) (HT29): −37.21%
- Avg (ERK 1 2) (HT29): −44.3%
- Avg (ERK 1 2 T202 Y204) (HT29): 54.82%
- Avg (MAK1 S360) (HT29): 1.49%
- Avg (Mcl1) (HT29): −2.83%
- Avg (Raptor S792) (HT29): −10.48%
- Avg (Raptor) (HT29): −8.53%
- Avg (Rictor) (HT29): −18.76%
- Avg (Stat1) (HT29): 4.74%
- Avg (Stat3) (HT29): −6.46%
- Avg (bad S112) (HT29): −20.66%
- Avg (c Fos) (HT29): −13.48%
- Avg (c Myc) (HT29): 17.85%
- Avg (mTOR S2448) (HT29): −20.68%
- Avg (mTOR S2481) (HT29): −8.64%
- Avg (mTOR) (HT29): 5.02%
- Avg (p70 S6 Kinase) (HT29): −10.64%
- Avg (p90 RSK S380) (HT29): −60.5%
- Avg(S6 Ribo Prot S235 236) (HT29): −44.68%
- Avg(S6 Ribo Prot S240 244) (HT29): −25.67%
- Avg(Tuberin TSC2 Y1571) (HT29): 0.66%
- Avg(p70 S6 Kinase S371 S394) (HT29): −35.94%
- Avg(p70 S6 Kinase T389 T412) (HT29): −24.58%
- Avg (4ebp1 T70) (AN3Ca): 32.17%
- Avg (Akt S473) (AN3Ca): 52.11%
- Avg (Akt) (AN3Ca): −22.43%
- Avg (Bad S136) (AN3Ca): −1.02%
- Avg (Bad S155) (AN3Ca): 0.66%
- Avg (Bak) (AN3Ca): 3.38%
- Avg (Bax) (AN3Ca): −10.47%
- Avg (Bcl 2) (AN3Ca): −16.83%
- Avg (Bcl2 S70) (AN3Ca): −14.81%
- Avg (Bcl 2 T56) (AN3Ca): −12.85%
- Avg (Bim) (AN3Ca): −12.57%
- Avg (CREB S133) (AN3Ca): 1.03%
- Avg (Caspase 3 CL D175) (AN3Ca): −10.8%
- Avg (Caspase 7 Cl D198) (AN3Ca): −12.35%
- Avg (Chk1) (AN3Ca): −8.45%
- Avg (Chk1 S345) (AN3Ca): −13.34%
- Avg (Cyclin D1) (AN3Ca): −0.69%
- Avg (ERK 1 2) (AN3Ca): −9.05%
- Avg (ERK 1 2 T202 Y204) (AN3Ca): 733.27%
- Avg (MAK1 S360) (AN3Ca): 0.49%
- Avg (Mcl1) (AN3Ca): −4.9%
- Avg (Raptor S792) (AN3Ca): −8.47%
- Avg (Raptor) (AN3Ca): −13.82%
- Avg (Rictor) (AN3Ca): −4.52%
- Avg (Stat1) (AN3Ca): −5.65%
- Avg (Stat3) (AN3Ca): −4.97%
- Avg (bad S112) (AN3Ca): −54.1%
- Avg (c Fos) (AN3Ca): −5.15%
- Avg (c Myc) (AN3Ca): −0.58%
- Avg (mTOR S2448) (AN3Ca): −10.79%
- Avg (mTOR S2481) (AN3Ca): 2.75%
- Avg (mTOR) (AN3Ca): 5.58%
- Avg (p70 S6 Kinase) (AN3Ca): −10.27%
- Avg (p90 RSK S380) (AN3Ca): −28.11%
- Avg(S6 Ribo Prot S235 236) (AN3Ca): −43.41%
- Avg(S6 Ribo Prot S240 244) (AN3Ca): −22.2%
- Avg(Tuberin TSC2 Y1571) (AN3Ca): 2.86%
- Avg(p70 S6 Kinase S371 S394) (AN3Ca): 32.26%
- Avg(p70 S6 Kinase T389 T412) (AN3Ca): −14.78%
- Avg (4ebp1 T70) (MIAPaCa-2): −9.42%
- Avg (Akt S473) (MIAPaCa-2): 9.9%
- Avg (Akt) (MIAPaCa-2): 23.63%
- Avg (Bad S136) (MIAPaCa-2): −4.12%
- Avg (Bad S155) (MIAPaCa-2): −5.65%
- Avg (Bak) (MIAPaCa-2): −15.15%
- Avg (Bax) (MIAPaCa-2): 23.44%
- Avg (Bcl 2) (MIAPaCa-2): 5.86%
- Avg (Bcl2 S70) (MIAPaCa-2): 0.89%
- Avg (Bcl 2 T56) (MIAPaCa-2): −1.78%
- Avg (Bim) (MIAPaCa-2): −12.51%
- Avg (CREB S133) (MIAPaCa-2): −19.26%
- Avg (Caspase 3 CL D175) (MIAPaCa-2): 22.35%
- Avg (Caspase 7 Cl D198) (MIAPaCa-2): −6.44%
- Avg (Chk1) (MIAPaCa-2): −3.51%
- Avg (Chk1 S345) (MIAPaCa-2): 1.2%
- Avg (Cyclin D1) (MIAPaCa-2): −37.9%
- Avg (ERK 1 2) (MIAPaCa-2): −40.33%
- Avg (ERK 1 2 T202 Y204) (MIAPaCa-2): 209.14%
- Avg (MAK1 S360) (MIAPaCa-2): −10.72%
- Avg (Mcl1) (MIAPaCa-2): −7.27%
- Avg (Raptor S792) (MIAPaCa-2): 5.95%
- Avg (Raptor) (MIAPaCa-2): 21.15%
- Avg (Stat1) (MIAPaCa-2): 8.62%
- Avg (Stat3) (MIAPaCa-2): −1.23%
- Avg (bad S112) (MIAPaCa-2): −30.29%
- Avg (c Fos) (MIAPaCa-2): −18.44%
- Avg (c Myc) (MIAPaCa-2): −8.77%
- Avg (mTOR S2448) (MIAPaCa-2): −11.73%
- Avg (mTOR S2481) (MIAPaCa-2): −0.24%
- Avg (mTOR) (MIAPaCa-2): −3.27%
- Avg (p70 S6 Kinase) (MIAPaCa-2): −3.59%
- Avg (p90 RSK S380) (MIAPaCa-2): −35%
- Avg(S6 Ribo Prot S235 236) (MIAPaCa-2): −79.46%
- Avg(S6 Ribo Prot S240 244) (MIAPaCa-2): −88.03%
- Avg(Tuberin TSC2 Y1571) (MIAPaCa-2): 1.7%
- Avg(p70 S6 Kinase S371 S394) (MIAPaCa-2): −28.27%
- Avg(p70 S6 Kinase T389 T412) (MIAPaCa-2): −39.23%
- Avg (4ebp1 T70) (Colo205): −36.35%
- Avg (Akt S473) (Colo205): −5.78%
- Avg (Akt) (Colo205): −3.85%
- Avg (Bad S136) (Colo205): 5.05%
- Avg (Bad S155) (Colo205): −18.18%
- Avg (Bak) (Colo205): 3.79%
- Avg (Bax) (Colo205): 0.28%
- Avg (Bcl 2) (Colo205): −0.13%
- Avg (Bcl2 S70) (Colo205): −10.2%
- Avg (Bcl 2 T56) (Colo205): −11.84%
- Avg (Bim) (Colo205): 41.73%
- Avg (CREB S133) (Colo205): −2.67%
- Avg (Caspase 3 CL D175) (Colo205): −3.18%
- Avg (Caspase 7 Cl D198) (Colo205): 6.76%
- Avg (Chk1) (Colo205): −2.86%
- Avg (Chk1 S345) (Colo205): −4.63%
- Avg (Cyclin D1) (Colo205): −23.65%
- Avg (ERK 1 2) (Colo205): −18.83%
- Avg (ERK 1 2 T202 Y204) (Colo205): 14.39%
- Avg (MAK1 S360) (Colo205): 14.69%
- Avg (Mcl1) (Colo205): −2.7%
- Avg (Raptor S792) (Colo205): 0.41%
- Avg (Raptor) (Colo205): −7.14%
- Avg (Rictor) (Colo205): −5.21%
- Avg (Stat1) (Colo205): 0.53%
- Avg (Stat3) (Colo205): −2.58%
- Avg (bad S112) (Colo205): −31.51%
- Avg (c Fos) (Colo205): −12.25%
- Avg (mTOR S2448) (Colo205): −23.51%
- Avg (mTOR S2481) (Colo205): −1.33%
- Avg (mTOR) (Colo205): 12.77%
- Avg (p70 S6 Kinase) (Colo205): 0.14%
- Avg (p90 RSK S380) (Colo205): −50.84%
- Avg(S6 Ribo Prot S235 236) (Colo205): −96.15%
- Avg(S6 Ribo Prot S240 244) (Colo205): −97.33%
- Avg(Tuberin TSC2 Y1571) (Colo205): −3.48%
- Avg(p70 S6 Kinase S371 S394) (Colo205): −18.11%
- Avg(p70 S6 Kinase T389 T412) (Colo205): −36.4%
